Target: mitochondrial ATP synthase (DNP-stimulated Mg2+-ATPase), rat heart mitochondria (Rattus norvegicus, UniProt P10719+P15999)
Experiment: phosphate release from ATP
Format: biochemical

Sequence of mitochondrial ATP synthase (DNP-stimulated Mg2+-ATPase), rat heart mitochondria (P10719 47-529): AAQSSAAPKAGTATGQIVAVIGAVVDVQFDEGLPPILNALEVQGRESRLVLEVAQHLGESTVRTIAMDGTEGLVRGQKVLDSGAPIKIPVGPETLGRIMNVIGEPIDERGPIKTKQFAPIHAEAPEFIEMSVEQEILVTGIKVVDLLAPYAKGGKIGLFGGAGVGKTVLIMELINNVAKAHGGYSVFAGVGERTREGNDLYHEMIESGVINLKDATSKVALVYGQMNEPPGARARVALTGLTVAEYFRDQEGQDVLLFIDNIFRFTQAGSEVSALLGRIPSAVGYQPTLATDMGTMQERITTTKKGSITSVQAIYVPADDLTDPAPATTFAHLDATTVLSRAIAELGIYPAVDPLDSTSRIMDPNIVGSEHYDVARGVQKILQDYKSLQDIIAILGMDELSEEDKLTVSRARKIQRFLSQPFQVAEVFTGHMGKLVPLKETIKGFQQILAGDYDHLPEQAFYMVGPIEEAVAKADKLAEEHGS
Sequence of mitochondrial ATP synthase (DNP-stimulated Mg2+-ATPase), rat heart mitochondria (P15999 44-553): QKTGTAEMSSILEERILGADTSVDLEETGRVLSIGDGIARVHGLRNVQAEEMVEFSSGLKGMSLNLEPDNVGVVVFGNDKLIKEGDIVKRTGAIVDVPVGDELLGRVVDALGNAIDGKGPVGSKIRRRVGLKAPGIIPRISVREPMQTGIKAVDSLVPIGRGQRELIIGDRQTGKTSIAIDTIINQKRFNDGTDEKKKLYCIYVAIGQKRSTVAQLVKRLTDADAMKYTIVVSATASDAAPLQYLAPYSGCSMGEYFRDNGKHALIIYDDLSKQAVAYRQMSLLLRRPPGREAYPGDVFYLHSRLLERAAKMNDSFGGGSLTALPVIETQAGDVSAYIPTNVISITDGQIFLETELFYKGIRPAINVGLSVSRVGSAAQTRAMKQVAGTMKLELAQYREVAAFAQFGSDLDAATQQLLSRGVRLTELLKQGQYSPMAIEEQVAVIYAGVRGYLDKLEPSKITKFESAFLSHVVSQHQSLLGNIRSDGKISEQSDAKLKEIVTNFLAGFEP
Sequence of mitochondrial ATP synthase (DNP-stimulated Mg2+-ATPase), rat heart mitochondria (P35435 whole entry partner): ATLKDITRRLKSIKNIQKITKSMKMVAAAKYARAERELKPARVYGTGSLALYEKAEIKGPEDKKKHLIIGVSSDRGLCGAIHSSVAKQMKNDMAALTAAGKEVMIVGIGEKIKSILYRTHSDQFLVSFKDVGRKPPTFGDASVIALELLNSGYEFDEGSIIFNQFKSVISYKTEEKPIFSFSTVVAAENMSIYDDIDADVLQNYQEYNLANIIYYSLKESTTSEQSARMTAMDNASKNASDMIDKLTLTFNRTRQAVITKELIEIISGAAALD
Sequence of mitochondrial ATP synthase (DNP-stimulated Mg2+-ATPase), rat heart mitochondria (P35434 23-168 partner): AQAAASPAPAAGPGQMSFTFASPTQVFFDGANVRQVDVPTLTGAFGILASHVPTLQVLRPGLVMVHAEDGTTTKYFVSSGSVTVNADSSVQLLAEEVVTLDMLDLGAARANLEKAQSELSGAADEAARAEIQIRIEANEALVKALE
Sequence of mitochondrial ATP synthase (DNP-stimulated Mg2+-ATPase), rat heart mitochondria (P29418 2-51 partner): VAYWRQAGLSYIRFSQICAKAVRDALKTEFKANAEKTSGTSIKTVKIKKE
Sequence of mitochondrial ATP synthase (DNP-stimulated Mg2+-ATPase), rat heart mitochondria (Q06647 24-213 partner): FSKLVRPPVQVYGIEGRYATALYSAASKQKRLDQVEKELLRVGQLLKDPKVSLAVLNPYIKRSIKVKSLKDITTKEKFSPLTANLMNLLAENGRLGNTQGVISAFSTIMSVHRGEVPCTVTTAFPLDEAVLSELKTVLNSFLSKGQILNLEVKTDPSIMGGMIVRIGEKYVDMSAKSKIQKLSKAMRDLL

In the case of `C[C@H](CS)C(=O)N1CCC[C@H]1C(=O)O` [captopril], the inhibition at 450 µM (read-out: % inhibition at 0.45 mmol/l) is reported as 97.4%.
With `COC(=O)C1=C(C)NC(C)=C(C(=O)OC)C1c1ccccc1[N+](=O)[O-]` [nifedipine] the inhibition at 15 µM (read-out: % inhibition at 0.015 mmol/l) was 33%.

— publication PMC4951600 (Iranian Journal of Basic Medical Sciences, 2016)
